Experimental data reported in US20090149530A1 (priority 2007, published 2009).

Assays:
[1] = system: H5N1 virions; assay type: binding, Avian influenza A virus (H5N1); conditions: Averionol to Istrocyanidin bound
[2] = system: Dengue-2 virus particles; assay type: binding; conditions: Den-2; Averionol to Istrocyanidin bound

COc1cc(OC)c2c(=O)c(O)c(-c3ccc(OC)c(OC)c3)oc2c1 [Averionol] was tested, and the “Aver:Istro Ratio” value [1] was 14.0 and the “Aver:Istro Ratio” value [2] was 3.7.
